Experimental data reported in PMC5602130, “Food and Sex-Related Impacts on the Pharmacokinetics of a Single-Dose of Ginsenoside Compound K in Healthy Subjects” (Frontiers in Pharmacology, 2017).
Marks after values point to notes of the source that are not given here.

What was measured:
[1] = design: method as in Chen et al., [2014]; conditions: rats; ref Chen et al., [2014]; cited from earlier work
[2] = Food-effect trial: cumulative excretion rate from urine (0-48 h); assay type: in vivo, human; conditions: single oral 200 mg CK
Description: The food-effect trial was an open-label, randomized, two-period, two-treatment crossover trial, carried out from 15 January to 31 March 2015. Subjects (n = 24) were admitted to the clinical facility (Center of Clinical Pharmacology, the Third Xiangya Hospital, Central South University, Changsha, China) and randomized to receive a single 200 mg oral dose of Ginsenoside CK Tablets (4 × 50 mg tablets) either after a 10 h-fasting period or within 30 min after beginning the consumption of a recommended high-fat, high calorie breakfast (150 calories of protein, 250 calories of carbohydrates, 500 to 600 calories of fat; total calories approximately 800–1,000). Tablets were administered with 250 mL of water, to each subject, in each treatment period. Drinking was prohibited for 2 h before and after medication. Apart from this, the amount and time of drinking were not strictly controlled. Subjects had unified, standard meals 4 and 10 h after drug administration. The alternate treatment was conducted after a 14-day washout period. Urine samples were collected 0–24 and 24–48 h after the administration and the volumes were measured immediately after collection. We preserved 8 mL in centrifuge tube for PK assessment, which were stored at −70°C before analysis. Descriptive statistics of PK parameters were calculated using established non-compartmental methods, utilizing the WinNonLin version 6.1 software (Pharsight Corporation, USA). The PK parameters determined for each participant included apparent terminal half-life (t1/2), maximum plasma concentration (Cmax), time to Cmax (tmax), area under the plasma concentration-time curve from the time of administration up to the last time point with a measurable concentration post-dose (AUClast), AUC extrapolated to infinity (AUCinf), apparent volume of distribution (V/F), apparent plasma clearance (CL/F) after extravascular administration, mean residence time (MRTlast and MRTinf), and the cumulative excretion rate from urine. The t1/2 was estimated as (ln2)/K, where K represented the slope of the terminal phase of plasma concentration-time profile and was assessed with a weighting factor of 1, using least squares (log-linear regression of at least three data points). The Cmax and tmax were obtained from experimental observations. The values of AUC were calculated using conventional trapezoidal and log-trapezoidal methods and the extrapolated area (Rowland and Tozer, [1995]). CL/F and V/F were calculated as dose/AUCinf and (CL/F)/K, respectively. MRT was calculated as MRT = AUMC/AUC, where AUMC is the area under the first moment curve. The cumulative excretion rate was calculated as the amount of unchanged drug over a time interval in the urine divided by dose, and was expressed as a percentage. The processing of urine samples was similar to that of plasma samples. […] For QC samples containing 2.00, 50.10, or 801.60 ng·mL^−1 CK were prepared using homogenic human urine with the mean bias ranged from −5.54 to 3.56%, while the CVs ranged from 1.38 to 4.89%.

[3] = Food-effect trial: safety assessments (adverse events, vital signs, ECG, laboratory tests); assay type: in vivo, human
Description: All available information on the study participants was included in the summaries of safety assessments, and must be recorded on the case-report form by investigators. The safety assessment took place throughout the project, and it included continuous observation of adverse events (AEs), monitoring of vital signs, 12-lead ECGs, hematological and biochemical analyses, and urinalysis. Specifically, the monitoring began the night before drug administration (at least 10 h), when subjects were admitted to the clinical facility, and continued for 96 h after dosing. ECGs were recorded prior to the administration and 1, 4, 12, 24, 48, 72, and 96 h after the administration of CK, as well as during physical examinations before and after the trial. Apart from investigators' review, data were also obtained from subjects by recounting or narrating themselves. Subsequently, AEs were classified by intensity into mild, moderate, and severe. A second classification of AEs, based on the relationship of AEs to the test drug, was performed, dividing them into positive, probable, possible, remote, or unrelated.

[4] = Early clinical trial: sex differences of ginsenoside compound K pharmacokinetics (Supplementary Table 1); conditions: human, in vivo; for Cmax: n = 12
Description: Therefore, a secondary purpose of this trial is to investigate whether there are any differences in the pharmacokinetics of CK between males and females, and whether the findings are consistent with what was previously observed. This report described an open-label, single-center trial, designed as a two-period crossover study, performed on healthy Chinese subjects (n = 24) randomized to either the fasting overnight (FO) or the high-fat (HF) meal group, before receiving a single 200 mg dose of Ginsenoside CK Tablets. Consequently, this study also provides evidence for dosing regimens, for late-stage clinical studies and clinical applications. Supplementary Table 1. Sex differences of ginsenoside compound K in human (n = 12).

[5] = Abnormal urine routine, possible related
[6] = Elevated creatine kinase, possible related
[7] = Elevated direct bilirubin, probable related
[8] = Elevated triglycerides, possible related
[9] = Upper respiratory tract infection, possible related

CC(C)=CCCC(C)(OC1OC(CO)C(O)C(O)C1O)C1CCC2(C)C1C(O)CC1C3(C)CCC(O)C(C)(C)C3CCC12C [CK, 20-O-beta-D-glucopyranosyl-20(S)-protopanaxadiol]
Dose exhibiting initial anti-inflammatory activity [1]: 10 mg/kg
Cumulative excretion rate ([2]; FO, female): 0.083 ± 0.049%
Cumulative excretion rate ([2]; FO, male): 0.037 ± 0.029%
Cumulative excretion rate ([2]; HF, all subjects): 0.020 ± 0.015%
Cumulative excretion rate ([2]; HF, female): 0.019 ± 0.070%
Cumulative excretion rate ([2]; HF, male): 0.022 ± 0.020%
Cumulative excretion rate ([2]; unchanged drug / dose, FO, all subjects): 0.060 ± 0.046%
Adverse events: Number of cases [3, 5]: 1^c
Adverse events: Percentage [3, 5]: 4.2%
Adverse events: Number of cases ([3]; Bellyache, positive related): 3^a
Adverse events: Percentage ([3]; Bellyache, positive related): 12.5%
Adverse events: Number of cases ([3]; Diarrhea, probable related): 1^b
Adverse events: Percentage ([3]; Diarrhea, probable related): 4.2%
Adverse events: Number of cases [3, 6]: 3^c
Adverse events: Percentage [3, 6]: 12.5%
Adverse events: Number of cases [3, 7]: 1^b
Adverse events: Percentage [3, 7]: 4.2%
Adverse events: Number of cases [3, 8]: 3^c
Adverse events: Percentage [3, 8]: 12.5%
Incidence of AEs classified as positive, probable and possible in relation to the test drug ([3]; FO regimen): 55.6%
Incidence of AEs classified as positive, probable and possible in relation to the test drug ([3]; HF regimen): 44.4%
Adverse events: Number of cases ([3]; Hematuria, possible related): 1^c
Adverse events: Percentage ([3]; Hematuria, possible related): 4.2%
Adverse events: Number of cases ([3]; Nausea, probable related): 1^b
Adverse events: Percentage ([3]; Nausea, probable related): 4.2%
Adverse events: Number of cases [3, 9]: 1^c
Adverse events: Percentage [3, 9]: 4.2%
Adverse events: Percentage ([3]; Watery stool, positive related): 16.7%
Adverse events: Number of cases ([3]; Watery stool, positive related to ginsenoside compound K, 24 subjects): 4^a
Intensity of AEs ([3]; all AEs): mild
Instances of AEs recorded ([3]; both treatments): 19
Number of subjects with AEs ([3]; of 24 subjects): 11
Subjects with AEs (percentage) ([3]; of 24 subjects, both treatments): 45.8%
Abnormalities in physical examination, vital signs, ECGs, or standard clinical laboratory test results ([3]; single 200 mg dose): not associated with any clinically significant abnormalities
AUC(0-inf) ([4]; female): 4670 ± 2140 ng·h/mL
AUC(0-t) ([4]; female): 4490 ± 2030 ng·h/mL
Tmax ([4]; female): 2.58 ± 0.67 h
half-life ([4]; female): 5.66 ± 2.04 h
Cmax ([4]; Female): 873 ± 427 ng/mL
Cmax ([4]; Male): 601 ± 183 ng/mL
AUC(0-inf) ([4]; male): 3680 ± 1360 ng·h/mL
AUC(0-t) ([4]; male): 3600 ± 1320 ng·h/mL
Tmax ([4]; male): 3.19 ± 1.25 h
half-life ([4]; male): 4.15 ± 1.9 h
